# Laboratory results as given in patent US7351687B2, “Antibiotic 107891, its factors A1 and A2, pharmaceutically acceptable salts and compositions, and use thereof” (priority 2003, dated 2008).
# Like-named read-outs stand apart in the source and are kept apart here.
# Tests used:
# [1] = system: Ent. faecalis
# [2] = system: Staph. aureus
# [3] = system: Staph. epidermidis; assay: MIC, broth microdilution method (NCCLS M7-A5); assay type: cell-based
# [4] = system: Ent. gallinarum; assay: MIC, broth microdilution method (NCCLS M7-A5); assay type: cell-based; conditions: 4174 Ent. gallinarum
# Method: Antimicrobial activity of the antibiotic 107891 was determined by the broth microdilution method according to the National Committee for Clinical Laboratory Standards recommendations (NCCLS, document M7-A5).
# The strains used were clinical isolates or strains from American Type Culture Collection (ATCC).
# Antibiotic 107891 was dissolved in DMSO to obtain a 1000 μg/ml stock solution, and subsequently diluted in water to obtain working solution. The media used were cation-adjusted Mueller Hinton broth (CAMHB) for Staphylococci, M. catarrhalis, Enterococci and L. monocytogenes; Todd Hewitt broth (THB) for Streptococci; GC medium+1% Isovitalex+1% haemine for Neisseria spp.; Brain Hearth Infusion+1% C supplement for H. influenzae; Lactobacillus broth for Lactobacilli; Middlebrook 7H9 with Middlebrook OADC enrichment for M. smegmatis; RPMI 1640 Medium for C. albicans. Wilkins Chalgren broth+oxyrase (1:25 v/v) for Clostridia; Brucella broth containing cisteine (0.5 g/L) for Propionibacteria. Inocula for bacteria were 10^5 CFU/ml. C. albicans inoculum was 1×10^4 CFU/ml. All the tests were performed in presence of 0.02% of bovine serum albumin (BSA). […] After 18-24 hours visual readings were performed and MICs determined. […]
# Table VIII reports the antimicrobial activities of the individual Factors A1 and A2 of antibiotic 107891. MICs were determined by microbroth dilution method as above described.
# [5] = system: Neisseria gonorrhaee; conditions: 997 Neisseria gonorrhaee
# [6] = system: Propionibacterium acnes; conditions: 1016 Propionibacterium. acnes
# [7] = system: Strept. pneumoniae; assay: MIC, broth microdilution method (NCCLS M7-A5); assay type: cell-based
# [8] = system: Neisseria meningitidis; conditions: 1613 Neisseria meningitidis
# [9] = system: Ent. faecium
# [10] = 1400 Staphylococcus aureus cl. isol. Met r
# [11] = 4341 Ent. faecalis VanB (first line, r17)
# [12] = 4341 Ent. faecalis VanB (second line, r19)
# [13] = 569 Enterococcus faecium cl. isol. Van A
smiles,measurement,setting,value
"C=C1NC(=O)[C@H](Cc2c[nH]c3ccc(Cl)cc23)NC(=O)[C@H](NC(=O)/C(=C/C)NC(=O)[C@@H](N)C(C)C)CSC[C@@H](C(=O)N[C@H]2C(=O)N3CCC[C@H]3C(=O)NCC(=O)N[C@H](C(=O)N[C@H](C(=O)N[C@@H]3CSC[C@@H]4NC(=O)[C@H](CC(N)=O)NC(=O)[C@@H](CSC[C@@H]5NC(=O)[C@H](Cc6ccccc6)NC(=O)[C@@H](CS/C=C\NC5=O)NC4=O)NC(=O)CNC(=O)CNC(=O)CNC(=O)[C@@H]4CCCN4C3=O)[C@@H](C)O)CS[C@H]2C)NC(=O)[C@H](CC(C)C)NC1=O [MF-BA-1768α1, reference compound]",MIC,[1],4 µg/mL
C=C1NC(=O)C(Cc2c[nH]c3ccc(Cl)cc23)NC(=O)C(NC(=O)C(=CC)NC(=O)C(N)C(C)C)CSCC(C(=O)NC2C(=O)N3CCCC3C(=O)NCC(=O)NC(C(=O)NC(C(=O)NC3CSCC4NC(=O)C(CC(N)=O)NC(=O)C(CSCC5NC(=O)C(Cc6ccccc6)NC(=O)C(CS/C=C\NC5=O)NC4=O)NC(=O)CNC(=O)CNC(=O)CNC(=O)C4C(O)C(O)CN4C3=O)C(C)O)CSC2C)NC(=O)C(CC(C)C)NC1=O (centres unmarked) [Factor A1],MIC,[2]; 819 Staph. aureus Met-S,≦0.03 μg/ml
same,MIC,[2]; [10],0.13 µg/mL
same,MIC,[2]; 1524 Staph. aureus Met-R,≦0.03 μg/ml
same,MIC,[2]; 2235 Staph. aureus Met-R,0.06 µg/mL
same,MIC,[3]; 3894 Staph. epidermidis Met-R,≦0.03 μg/ml
same,MIC,[4],1 µg/mL
same,MIC,[5],0.5 µg/mL
same,MIC,[6],<0.03 µg/mL
same,MIC,[1],1 µg/mL
same,MIC,[1]; 4323 Ent. faecalis VanA,≦0.03 μg/ml
same,MIC,[1]; [11],0.5 µg/mL
same,MIC,[1]; [12],2 µg/mL
same,MIC,[1]; 4397 Ent. faecalis VanB,1 µg/mL
same,MIC,[1]; J1 Ent. faecalis VanA,1 µg/mL
same,MIC,[7]; 3915 Strept. pneumoniae Pen-S,≦0.0015 μg/ml
same,MIC,[7]; 3919 Strept. pneumoniae Pen-R,≦0.0015 μg/ml
same,MIC,[8],0.25 µg/mL
same,MIC,[9]; 3 Ent. faecium Van A,0.5 µg/mL
same,MIC,[9]; 4 Ent. faecium Van A,1 µg/mL
same,MIC,[9]; [13],1 µg/mL
same,MIC,[9]; 4339 Ent. faecium VanD,0.25 µg/mL
same,MIC,[9]; 6349 Ent. faecium Van A LNZ-R,2 µg/mL
same,MIC,[9]; A8 Ent. faecium Van A,0.5 µg/mL
same,MIC,[9]; D561 Ent. faecium Van A,2 µg/mL
C=C1NC(=O)C(Cc2c[nH]c3ccc(Cl)cc23)NC(=O)C(NC(=O)C(=CC)NC(=O)C(N)C(C)C)CSCC(C(=O)NC2C(=O)N3CCCC3C(=O)NCC(=O)NC(C(=O)NC(C(=O)NC3CSCC4NC(=O)C(CC(N)=O)NC(=O)C(CSCC5NC(=O)C(Cc6ccccc6)NC(=O)C(CS/C=C\NC5=O)NC4=O)NC(=O)CNC(=O)CNC(=O)CNC(=O)C4CC(O)CN4C3=O)C(C)O)CSC2C)NC(=O)C(CC(C)C)NC1=O (centres unmarked) [Factor A2],MIC,[2]; 819 Staph. aureus Met-S,≦0.03 μg/ml
same,MIC,[2]; [10],0.13 µg/mL
same,MIC,[2]; 1524 Staph. aureus Met-R,≦0.03 μg/ml
same,MIC,[2]; 2235 Staph. aureus Met-R,0.06 µg/mL
same,MIC,[3]; 3881 Staph. epidermidis Met-R,≦0.03 μg/ml
same,MIC,[4],1 µg/mL
same,MIC,[5],0.25 µg/mL
same,MIC,[6],0.06 µg/mL
same,MIC,[1],2 µg/mL
same,MIC,[1]; 4323 Ent. faecalis VanA,≦0.03 μg/ml
same,MIC,[1]; [11],0.5 µg/mL
same,MIC,[1]; [12],2 µg/mL
same,MIC,[1]; 4397 Ent. faecalis VanB,1 µg/mL
same,MIC,[1]; J1 Ent. faecalis VanA,1 µg/mL
same,MIC,[7]; 3915 Strept. pneumoniae Pen-S,≦0.0015 μg/ml
same,MIC,[7]; 3919 Strept. pneumoniae Pen-R,≦0.0015 μg/ml
same,MIC,[8],0.25 µg/mL
same,MIC,[9]; 3 Ent. faecium Van A,0.5 µg/mL
same,MIC,[9]; 4 Ent. faecium Van A,1 µg/mL
same,MIC,[9]; 568 Enterococcus faecium cl. isol.,2 µg/mL
same,MIC,[9]; [13],2 µg/mL
same,MIC,[9]; 4339 Ent. faecium VanD,0.25 µg/mL
same,MIC,[9]; 6349 Ent. faecium Van A LNZ-R,2 µg/mL
same,MIC,[9]; A8 Ent. faecium Van A,0.5 µg/mL
same,MIC,[9]; D561 Ent. faecium Van A,2 µg/mL
